Where two headings read alike, the source gives them in different places.

For data set [1] the following is noted: in vivo; cited from earlier work.
Data set [2] concerns angiotensin converting enzyme (ACE). The following applies: rats, 20, 25, and 30 days post-treatment; cited from earlier work.
For data set [3] the following is noted: rat, in vivo, 65 mg/kg; cited from earlier work.
The next data set relates to renal cortex. The following applies: cited from earlier work.
The test system of the next data set is glutathione reductase. The note with it: cited from earlier work.
The conditions of data set [4]: CMV patients; cited from earlier work.
For data set [5] the following is noted: rats, cited from earlier work.
For data set [6] the following is noted: rats, began on day 3; cited from earlier work.
For data set [7] the following is noted: rabbit, in vivo; cited from earlier work.
A short description of data set [8]: Clinical chemistry of the dosed rats. In kind it is in vivo. The note with it: rats given the high dosage.
Another data set relates to rat hepatocytes. The following applies: cited from earlier work.
For data set [9] the following is noted: rats fed hydralazine, compared to control groups; cited from earlier work.
For data set [10] the following is noted: rats and mice, varying doses; cited from earlier work.
For data set [11] the following is noted: rat, in vivo; cited from earlier work.
Data set [12] concerns glomerular epithelial cell. The following applies: rat, in vivo; cited from earlier work.
The conditions of data set [13]: four HIV-positive patients treated for toxoplasmosis; cited from earlier work.
The conditions of data set [14]: male Wistar rats, daily doses within human therapeutic range; cited from earlier work.
For data set [15] the following is noted: treatment 2 to 25 years; cited from earlier work.

Regarding “9-[(2-hydroxyethyl) methyl] guanine [ACYCLOVIR]”, in [1], the excretion result is listed as “most of it is excreted in the urine largely unchanged”.

With `COc1cccc2c1C(=O)c1c(O)c3c(c(O)c1C2=O)C[C@@](O)(C(=O)CO)C[C@@H]3O[C@H]1C[C@H](N)[C@H](O)[C@H](C)O1` [ADR], the “serum ACE levels” value in data set [2] is listed as “serum ACE levels were significantly elevated”.

In the case of `N.N.O=C([O-])C1(C(=O)[O-])CCC1.[Pt+2]` [CARBOPLATIN], the CGT excretion entry in data set [3] is given as “increased approximately two-fold”.

`O=C(Cc1cccs1)N[C@@H]1C(=O)N2C(C(=O)[O-])=C(C[n+]3ccccc3)CS[C@H]12` [CEPHALORIDINE]: the “reduced glutathione (GSH) in the renal cortex” value in the data set on renal cortex is “depleted reduced glutathione (GSH)”. For the same compound, the glutathione reductase activity result in the data set on glutathione reductase is listed as “inhibited glutathione reductase”.

As for `Nc1ccn(C[C@@H](CO)OCP(=O)(O)O)c(=O)n1` [CIDOFOVIR], in data set [4], the “patients with dose-dependent asymptomatic proteinuria” value was “Approximately 40%” and the “patients with elevated serum creatinine levels” value is given as 25%.

Regarding `N.N.[Cl][Pt][Cl]` [CISPLATIN, Pt(NH3)2(Cl)2], the BUN result is on record as “six or seven-fold elevation in BUN” in data set [5] (day 2, high-dose groups (10-15 mg/kg)) and “BUN elevation was noted” in [5] (day 4, 5 mg/kg group). The serum creatinine levels entry in [6] was “elevations in serum creatinine levels”.

`CC1=C2C(=CO[C@H](C)[C@H]2C)C(O)=C(C(=O)O)C1=O` [CITRININ]: in data set [7], the “creatinine clearance, blood urea nitrogen, serum creatinine (renal failure)” value was “decreased creatinine clearance and increased blood urea nitrogen and serum-creatinine levels”.

`O=C(O)c1cc(-c2ccc(F)cc2F)ccc1O` [DIFLUNISAL]: the concentrations of creatinine result in data set [8] is “increased concentrations of creatinine”. In the data set on rat hepatocytes (500 μM, compared to control), the LDH leakage entry is “increase LDH leakage”. The “intracellular ATP concentrations” value in the data set with rat hepatocytes is listed as “decreased intracellular ATP concentrations”.

As for `NNc1nncc2ccccc12` [HYDRALAZINE], the kidney copper concentrations entry in data set [9] was “kidney copper concentrations were increased”.

As to `NCCC(O)(P(=O)(O)O)P(=O)(O)O` [PAMIDRONATE], the “body weight and creatinine clearance” value in [10] was “significant weight loss and a decrease in creatinine clearance”.

For the compound `CN(C)c1ncnc2c1ncn2[C@@H]1O[C@H](CO)[C@@H](N)[C@H]1O` [PAN, puromycin aminonucleoside], the proteinuria entry in data set [11] was “led to proteinuria”. The “glomerular epithelial cell apoptosis” value in data set [12] is “induced glomerular epithelial cell apoptosis”.

For `Nc1ccc(S(=O)(=O)Nc2ncccn2)cc1` [SULFADIAZINE], in [13], the “clinical renal adverse findings” value is given as “developed oliguria, abdominal pain, renal failure”.

LITHIUMCHLORIDE: the polyuria entry in data set [14] is “marked polyuria within three weeks”. In data set [15], the “patients with nephrogenic diabetes insipidus (NDI)” value is listed as approximately 90% and the “patients with nephrotic proteinuria” value is “Approximately one fourth”.

The record behind these values is patent US7415358B2, “Molecular toxicology modeling” (Ocimum Biosolutions, Inc., priority 2001, dated 2008).
